“Also recorded” adds a separate entry of the source.
Experiments:
adrenal glands = test: Uptake into adrenal glands, microPET; type: in vivo, rhesus macaque monkey; conditions: DMI block of NET
Text: To assess the ability of [^18F]4F-MHPG to serve an additional clinical role as a marker of adrenergic tumors such as neuroblastoma and pheochromocytoma, data were collected to examine the uptake of [^18F]4F-MHPG into the adrenal gland. In control studies, the adrenal glands took up sufficient [^18F]4F-MHPG to be visualized, especially on the right side of the transaxial images, which was better separated from the kidney than the contralateral adrenal gland. There was also significant uptake in the cortex of the kidney. The kinetics of [^18F]4F-MHPG in the adrenal gland are very similar to those seen in the heart. In the DMI block study above, the adrenal glands were scanned for 10 minutes following the 90 minute cardiac study.

[1] = In vitro incubation with monkey liver cytosol fraction and PAPS (sulfur conjugation); type: in vitro ADME
Method: The main radiometabolite formed is more polar than the parent compound, [^18F]4-MHPG. The metabolite has been identified as the sulfur conjugate of [^18F]4-MHPG based on in vitro incubations of the parent compound with a monkey liver cytosol fraction and the required cofactor 3′-phospho-adenosine-5′phosphosulfate (PAPS). After only 1 minute of in vitro incubation, approximately 70% of [^18F]4-MHPG was sulfur conjugated, and after 20 minutes of incubation, 100% was in the sulfur-conjugated form (FIG. 4B). Sulfur conjugation occurs at the meta-hydroxyl group (FIG. 4C). Without being bound by theory and without requiring an understanding of the mechanism to practice the technology, it is contemplated that rapid metabolism of [^18F]4F-MHPG is a reason for its low liver uptake. In comparison, the structurally similar carbon-11 compound, [^11C]guanyl-meta-octopamine (GMO), has a slower metabolic breakdown in monkey plasma, with a T1/2 for breakdown of approximately 13 minutes.

Biodistribution in rats = type: in vivo, rat; conditions: for Biodistribution, Ovary / Biodistribution, Testes / Biodistribution, Uterus: n = 2
Method: During the development of embodiments of the technology, data were collected from bioevaluation studies of [^18F]4F-MHPG. […]
During the development of embodiments of the technology provided herein, the biodistribution of [^18F]4F-MHPG into the organs of rats was assessed. In particular, four time points (Table 3) were collected and used to derive human radiation absorbed dose estimates using the OLINDA/EXM 1.0 software package (see, e.g., Stabin et al. (2005) “OLINDA/EXM; the second-generation personal computer software for internal dose assessment in nuclear medicine”, J Nucl Med. 46: 1023-7). […] These values were entered into the Dynamic Bladder model of OLINDA/EXM, assuming a 4.0-hour void interval. Organs with the highest absorbed dose estimates included the urinary bladder wall (0.666 rad/mCi), […] (0.221 rad/mCi), small intestine (0.201 rad/mCi), and the heart wall (0.201 rad/mCi). An ‘effective dose’ of 0.091 rem/mCi was estimated for [^18F]4F-MHPG. Under United States Federal Regulations governing research with a new radiopharmaceutical (21 CFR § 361.1), the maximum allowable radiation absorbed dose to an individual organ (other than the gonads) is 5 rad. Considering the maximum estimated absorbed dose (urinary bladder wall; 0.666 rad/mCi), initial PET studies in human subjects could use a maximum of 7.5 mCi of [^18F]4F-MHPG. This would correspond to an ‘effective dose’ of 0.68 rem.

[2] = 30 minutes after injection, n=5

fraction sulfur conjugated ([1]; after 1 minute of in vitro incubation): approximately 70%
fraction in the sulfur-conjugated form ([1]; after 20 minutes of incubation): 100%
maximum percentage of the injected dose observed in the gastrointestinal tract (Biodistribution in rats): 12.6%
Biodistribution, Adrenal (Biodistribution in rats; 5 min): 0.203 ± 0.083 % ID · kg/g
Biodistribution, Blood (Biodistribution in rats; 5 min): 0.062 ± 0.004 % ID/g
Biodistribution, Bone (Biodistribution in rats; 5 min): 0.060 ± 0.015 % ID/g
Biodistribution, Brain (Biodistribution in rats; 5 min): 0.004 ± 0.001 % ID · kg/g
Biodistribution, Eyeballs (Biodistribution in rats; 5 min): 0.039 ± 0.006 % ID · kg/g
Biodistribution, Heart (Biodistribution in rats; 5 min): 0.746 ± 0.067 % ID · kg/g
Biodistribution, Kidney (Biodistribution in rats; 5 min): 1.398 ± 0.530 % ID · kg/g
Biodistribution, Liver (Biodistribution in rats; 5 min): 0.477 ± 0.110 % ID · kg/g
Biodistribution, Lung (Biodistribution in rats; 5 min): 0.267 ± 0.045 % ID · kg/g
Biodistribution, Muscle (Biodistribution in rats; 5 min): 0.019 ± 0.005 % ID/g
Biodistribution, Pancreas (Biodistribution in rats; 5 min): 0.137 ± 0.024 % ID · kg/g
Biodistribution, Spleen (Biodistribution in rats; 5 min): 0.268 ± 0.044 % ID · kg/g
Biodistribution, Stomach (Biodistribution in rats; 5 min): 0.116 ± 0.021 % ID · kg/g
Biodistribution, Ovary (Biodistribution in rats; 5 min): 0.194 ± 0.048 % ID · kg/g
Biodistribution, Testes (Biodistribution in rats; 5 min): 0.018 ± 0.002 % ID · kg/g
Biodistribution, Uterus (Biodistribution in rats; 5 min): 0.268 ± 0.044 % ID · kg/g
Biodistribution, Adrenal (Biodistribution in rats; 30 min): 0.181 ± 0.069 % ID · kg/g
Biodistribution, Blood (Biodistribution in rats; 30 min): 0.022 ± 0.003 % ID/g
Biodistribution, Bone (Biodistribution in rats; 30 min): 0.039 ± 0.015 % ID/g
Biodistribution, Brain (Biodistribution in rats; 30 min): 0.003 ± 0.000 % ID · kg/g
Biodistribution, Eyeballs (Biodistribution in rats; 30 min): 0.040 ± 0.004 % ID · kg/g
Biodistribution, Heart (Biodistribution in rats; 30 min): 0.602 ± 0.111 % ID · kg/g
Biodistribution, Kidney (Biodistribution in rats; 30 min): 0.183 ± 0.055 % ID · kg/g
Biodistribution, Liver (Biodistribution in rats; 30 min): 0.406 ± 0.071 % ID · kg/g
Biodistribution, Lung (Biodistribution in rats; 30 min): 0.136 ± 0.032 % ID · kg/g
Biodistribution, Muscle (Biodistribution in rats; 30 min): 0.025 ± 0.011 % ID/g
Biodistribution, Pancreas (Biodistribution in rats; 30 min): 0.145 ± 0.021 % ID · kg/g
Biodistribution, Spleen (Biodistribution in rats; 30 min): 0.262 ± 0.055 % ID · kg/g
Biodistribution, Stomach (Biodistribution in rats; 30 min): 0.110 ± 0.004 % ID · kg/g
Biodistribution, Ovary (Biodistribution in rats; 30 min): 0.171 ± 0.020 % ID · kg/g
Biodistribution, Testes (Biodistribution in rats; 30 min): 0.010 ± 0.001 % ID · kg/g
Biodistribution, Uterus (Biodistribution in rats; 30 min): 0.155 ± 0.001 % ID · kg/g
Biodistribution, Adrenal (Biodistribution in rats; 60 min): 0.193 ± 0.053 % ID · kg/g
Biodistribution, Blood (Biodistribution in rats; 60 min): 0.016 ± 0.002 % ID/g
Biodistribution, Bone (Biodistribution in rats; 60 min): 0.027 ± 0.009 % ID/g
Biodistribution, Brain (Biodistribution in rats; 60 min): 0.002 ± 0.000 % ID · kg/g
Biodistribution, Eyeballs (Biodistribution in rats; 60 min): 0.041 ± 0.006 % ID · kg/g
Biodistribution, Heart (Biodistribution in rats; 60 min): 0.526 ± 0.116 % ID · kg/g
Biodistribution, Kidney (Biodistribution in rats; 60 min): 0.186 ± 0.090 % ID · kg/g
Biodistribution, Liver (Biodistribution in rats; 60 min): 0.350 ± 0.077 % ID · kg/g
Biodistribution, Lung (Biodistribution in rats; 60 min): 0.091 ± 0.015 % ID · kg/g
Biodistribution, Muscle (Biodistribution in rats; 60 min): 0.016 ± 0.002 % ID/g
Biodistribution, Pancreas (Biodistribution in rats; 60 min): 0.172 ± 0.042 % ID · kg/g
Biodistribution, Spleen (Biodistribution in rats; 60 min): 0.253 ± 0.054 % ID · kg/g
Biodistribution, Stomach (Biodistribution in rats; 60 min): 0.115 ± 0.029 % ID · kg/g
Biodistribution, Ovary (Biodistribution in rats; 60 min): 0.142 ± 0.052 % ID · kg/g
Biodistribution, Testes (Biodistribution in rats; 60 min): 0.008 ± 0.003 % ID · kg/g
Biodistribution, Uterus (Biodistribution in rats; 60 min): 0.112 ± 0.046 % ID · kg/g
Biodistribution, Adrenal (Biodistribution in rats; 120 min): 0.133 ± 0.021 % ID · kg/g
Biodistribution, Blood (Biodistribution in rats; 120 min): 0.009 ± 0.001 % ID/g
Biodistribution, Bone (Biodistribution in rats; 120 min): 0.016 ± 0.005 % ID/g
Biodistribution, Brain (Biodistribution in rats; 120 min): 0.001 ± 0.001 % ID · kg/g
Biodistribution, Eyeballs (Biodistribution in rats; 120 min): 0.026 ± 0.006 % ID · kg/g
Biodistribution, Heart (Biodistribution in rats; 120 min): 0.347 ± 0.055 % ID · kg/g
Biodistribution, Kidney (Biodistribution in rats; 120 min): 0.078 ± 0.024 % ID · kg/g
Biodistribution, Liver (Biodistribution in rats; 120 min): 0.233 ± 0.049 % ID · kg/g
Biodistribution, Lung (Biodistribution in rats; 120 min): 0.036 ± 0.006 % ID · kg/g
Biodistribution, Muscle (Biodistribution in rats; 120 min): 0.015 ± 0.002 % ID/g
Biodistribution, Pancreas (Biodistribution in rats; 120 min): 0.121 ± 0.016 % ID · kg/g
Biodistribution, Spleen (Biodistribution in rats; 120 min): 0.235 ± 0.066 % ID · kg/g
Biodistribution, Stomach (Biodistribution in rats; 120 min): 0.089 ± 0.019 % ID · kg/g
Biodistribution, Ovary (Biodistribution in rats; 120 min): 0.129 ± 0.029 % ID · kg/g
Biodistribution, Testes (Biodistribution in rats; 120 min): 0.004 ± 0.001 % ID · kg/g
Biodistribution, Uterus (Biodistribution in rats; 120 min): 0.081 ± 0.006 % ID · kg/g
Compound: N=C(N)NCCc1ccc(F)c(O)c1 [[^18F]4F-MHPG] [4-[^18F]fluoro-meta-hydroxy-phenethylguanidine]
uptake into the adrenal glands under DMI block (adrenal glands): No uptake; also recorded: completely absent
tissue concentration, adrenal medulla (Biodistribution in rats; [2]): 0.54 ± 0.08 percentage of the injected dose per gram
tissue concentration, blood (Biodistribution in rats; [2]): 0.07 ± 0.01 percentage of the injected dose per gram
tissue concentration, left ventricle (Biodistribution in rats; [2]): 1.45 ± 0.13 percentage of the injected dose per gram
tissue concentration, liver (Biodistribution in rats; [2]): 1.14 ± 0.16 percentage of the injected dose per gram
tissue concentration, lung (Biodistribution in rats; [2]): 0.43 ± 0.08 percentage of the injected dose per gram
tissue concentration, muscle (Biodistribution in rats; [2]): 0.07 ± 0.01 percentage of the injected dose per gram
tissue concentration, spleen (Biodistribution in rats; [2]): 0.56 ± 0.10 percentage of the injected dose per gram

From US10259781B2, “Imaging agents” (THE REGENTS OF THE UNIVERSITY OF MICHIGAN, priority 2012, dated 2019)
